Assay results taken from article PMC8019157 (Antiviral research, 2021).
Like-named read-outs stand apart in the source and are kept apart here.

Experiments:
SERCA1 [1] = biological target: T1, SERCA1 (Oryctolagus cuniculus, UniProt P04191); test: SERCA1 ATPase activity; type: biochemical, rabbit; conditions: with and without A23187
RyR1 = RyR1 (Oryctolagus cuniculus, UniProt P11716); test: Lipid bilayer single channel recordings of purified RyR1; type: biochemical, rabbit
[2] = test system: C2C12 skeletal muscle myotubes; test: Live-cell Ca^2+ imaging; type: cell-based, Mouse
SERCA1 [3] = biological target: T1, SERCA1; test: ATP-dependent ^45Ca^2+ accumulation by longitudinal SR vesicles; type: biochemical, rabbit
[4] = cited from earlier work; for Cmax: read-out: plasma Cmax
[5] = Drug dissolved in ethanol/water; type: physicochemical; conditions: room temperature (22 °C), HPLC
[6] = biological target: rabbit skeletal muscle ryanodine receptor Ca^2+ release channel (RyR1) (Oryctolagus cuniculus, UniProt P11716); test: [^3H]ryanodine binding/displacement assay with SR membrane vesicles
[7] = Atazanavir 1.56 μM cis, 3.3 μM cis Ca^2+
[8] = Atazanavir 3.12 μM cis, 3.3 μM cis Ca^2+
[9] = Atazanavir 6.78 μM cis, 3.3 μM cis Ca^2+
[10] = Atazanavir 20.00 μM cis, 3.3 μM cis Ca^2+
[11] = Atazanavir 30.00 μM cis, 3.3 μM cis Ca^2+
[12] = Atazanavir […] cis, 3.3 μM cis Ca^2+

T1 sequence (P04191 1-994 isoform P04191-2): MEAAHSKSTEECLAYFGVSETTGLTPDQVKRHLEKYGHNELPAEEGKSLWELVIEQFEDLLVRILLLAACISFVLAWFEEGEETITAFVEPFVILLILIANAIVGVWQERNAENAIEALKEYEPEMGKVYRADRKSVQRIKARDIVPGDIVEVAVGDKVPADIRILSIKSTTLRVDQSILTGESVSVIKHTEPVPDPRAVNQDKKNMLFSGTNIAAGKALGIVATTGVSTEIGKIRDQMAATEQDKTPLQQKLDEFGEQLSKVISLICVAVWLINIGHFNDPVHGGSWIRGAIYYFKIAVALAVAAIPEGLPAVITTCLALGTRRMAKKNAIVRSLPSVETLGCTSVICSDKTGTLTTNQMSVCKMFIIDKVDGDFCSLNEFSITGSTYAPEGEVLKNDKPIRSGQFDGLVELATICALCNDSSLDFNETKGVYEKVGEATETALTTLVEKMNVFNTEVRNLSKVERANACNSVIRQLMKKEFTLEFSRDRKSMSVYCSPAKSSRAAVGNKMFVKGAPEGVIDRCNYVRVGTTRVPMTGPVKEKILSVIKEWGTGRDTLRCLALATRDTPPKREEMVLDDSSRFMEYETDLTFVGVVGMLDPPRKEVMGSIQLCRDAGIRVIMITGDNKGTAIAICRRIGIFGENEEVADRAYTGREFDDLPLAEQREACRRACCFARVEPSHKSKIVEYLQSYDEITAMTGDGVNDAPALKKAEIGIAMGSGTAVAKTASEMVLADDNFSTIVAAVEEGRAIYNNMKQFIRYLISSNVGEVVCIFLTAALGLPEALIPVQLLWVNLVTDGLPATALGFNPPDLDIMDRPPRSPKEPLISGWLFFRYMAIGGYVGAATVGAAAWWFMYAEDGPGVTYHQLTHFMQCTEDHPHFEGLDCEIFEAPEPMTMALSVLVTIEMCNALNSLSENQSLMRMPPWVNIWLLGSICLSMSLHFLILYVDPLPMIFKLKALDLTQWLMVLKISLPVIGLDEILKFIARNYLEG

## COC(=O)N[C@H](C(=O)N[C@@H](Cc1ccccc1)[C@@H](O)CN(Cc1ccc(-c2ccccn2)cc1)NC(=O)[C@@H](NC(=O)OC)C(C)(C)C)C(C)(C)C [ATV, atazanavir]
SERCA1 [1]; 0 – 20 μM, 20 min at 37°C
  effect on ATPase activity of SERCA1: biphasic
SERCA1 [1]; concentrations higher than 5.0 μM
  effect on ATPase activity of SERCA1: decreased the ATPase activity
SERCA1 [1]; concentrations of 0.25 and 5.0 μM
  effect on ATPase activity of SERCA1: potentiated
RyR1; 1.6 μM cis ATV, within 15 sec, 3.3 μM cis Ca^2+
  increase in Po of RyR1: 40%
RyR1; 3.2 μM cis ATV
  effect on conductance of RyR1: did not alter the conductance
RyR1; 6.8 μM cis ATV
  Po of RyR1: 0.92 ± 0.10
  conductance of reduced conductance state R’1: 532 ± 34 pS
  current amplitude of RyR1 (reduced conductance state R’1): 74 % of maximum
RyR1; 6.8 μM cis ATV, ± 30 mV holding potential
  dwell time in the opened state: > 25 ms
RyR1; 20.0 μM and 30.0 μM cis ATV
  current amplitude of RyR1 (R’1): 74 % of maximum
RyR1; [7]
  Closed- maximally opened transitions (Hz): 789 ± 25 Hz
  Dwell time closed state: 1.97 ± 0.03 ms
  Dwell time open state: 0.66 ± 0.02 ms
  Po (+30 mV): 0.14 ± 0.01
RyR1; [8]
  Closed- maximally opened transitions (Hz): 1102 ±22 Hz
  Dwell time closed state: 0.62 ± 0.03 ms
  Dwell time open state: 2.83 ± 0.08 ms
  Po (+30 mV): 0.56 ± 0.03
RyR1; [9]
  Closed- maximally opened transitions (Hz): 206 ± 30 Hz
  Dwell time closed state: 0.55 ± 0.07 ms
  Dwell time open state: 25.12 ± 1.52 ms
  Po (+30 mV): 0.92 ± 0.10
RyR1; [10]
  Closed- maximally opened transitions (Hz): 750 ± 55 Hz
  Dwell time closed state: 2.22 ± 0.15 ms
  Dwell time open state: 1.44 ± 0.05 ms
  Po (+30 mV): 0.60 ± 0.04
RyR1; [11]
  Closed- maximally opened transitions (Hz): 142 ±20 Hz
  Dwell time closed state: 5.65 ± 0.06 ms
  Dwell time open state: 0.33 ± 0.01 ms
  Po (+30 mV): 0.11 ± 0.01
RyR1; [12]
  Closed- maximally opened transitions (Hz): 225 ±16 Hz
  Dwell time closed state: 0.43 ± 0.05 ms
  Dwell time open state: 5.70 ± 0.20 ms
  Po (+30 mV): 0.82 ± 0.04
RyR1; up to five minutes after addition
  effect on Po of RyR1 of concentrations lower than 1.6 μM: did not elicit changes in the Po
[2]
  Ca^2+ transient in C2C12 cells pretreated with 50 μM ryanodine for 20 min: attenuated the amplitude
[2]; 6 μM
  diameter of plasma membrane blebs, times larger than that of EFV: ~ 1.5 ×
  effect on plasma membrane of C2C12 cells: blebbing
  rate of Ca^2+ transient rise, times faster than that of EFV: 7.7 ×
  rate of decay of the Ca^2+ transient, times faster than that of EFV: 3 x
[2]; 6 μM, antiretroviral-naïve C2C12 myotubes
  mean peak amplitude of the Ca^2+ transient: 4.4 ± 0.1 f.u.
[2]; second dose 6 μM
  response to a second dose in previously exposed C2C12 cells: did not elicit a second Ca^2+ transient
SERCA1 [3]; 0 – 31.2 μM, 20 min at 37°C
  effect on ATP-dependent Ca^2+ transport by SERCA1: biphasic
SERCA1 [3]; > 5 μM
  effect on Ca^2+ accumulation via SERCA1: inhibiting
SERCA1 [3]; up to 5.0 μM
  effect on Ca^2+ accumulation via SERCA1: potentiating
[4]; 300 mg/day ATV
  plasma Cmax: ~ 2.2 μg/ml
  Cmax: ~3 µM
[4]; ATV co-administered with RTV (100 mg/day)
  Cmax: ~6 µM
[5]
  fraction dissolved in ethanol/water (1:1): 12.9%
  stock concentration in ethanol/water (1:1): 3.2 mM
[6]
  EC50: 14.9 ± 1.4 nM
  IC50: 6200 ± 800 nM
  Ki: 1600 ± 200 nM
[6]; 6.7 nM [^3H]ryanodine, 2 hr at 37°C
  maximum percent enhancement of [^3H]ryanodine binding over control: 40.5 ± 5.2%
[6]; 2 hr at 37°C
  concentrations that enhanced [^3H]ryanodine binding to RyR1: 1 to 20 nM
